Numbered stars: 1 amine (or outer) side, 2 acyl side, 3 side chain; on linkers, the order of the positions; unused ones are H or OH. Bridge positions count the residues as written; N and C are the ends. Square brackets hold non-standard residues; d marks the D form. Peptide text beside a SMILES is read from it. * marks the point of attachment. ξ: configuration not given here. Asp(3,3-Me2) = CC(C)(C(=O)O)[C@H](N)C(=O)O; Bip = N[C@@H](Cc1ccc(-c2ccccc2)cc1)C(=O)O; Phe(3-Me) = Cc1cccc(C[C@H](N)C(=O)O)c1; X41 = O=C([C@H](CC1CCCNC1)N[*:1])[*:2]; Bta = N[C@@H](Cc1csc2ccccc12)C(=O)O; Val(3-OH) = CC(C)(O)[C@H](N)C(=O)O; 4Pal = N[C@@H](Cc1ccncc1)C(=O)O; Cha = N[C@@H](CC1CCCCC1)C(=O)O; Cit = NC(=O)NCCC[C@H](N)C(=O)O; Ile(3ξ) = CCC(C)[C@H](N)C(=O)O; Thr(3ξ) = CC(O)[C@H](N)C(=O)O; dDab = NCC[C@@H](N)C(=O)O; Carboxymethyl = O=C(O)C*; NMeA = CN[C@@H](C)C(=O)O; Orn = NCCC[C@H](N)C(=O)O; Dab = NCC[C@H](N)C(=O)O; Aib = CC(C)(N)C(=O)O; ξC = NC(CS)C(=O)O; Acm = CC(=O)NC*
Target: T1, PE-labeled human PD-L1-Ig binding to Jurkat cell line over-expressing human PD-1 (Jurkat-PD-1) (Homo sapiens, UniProt Q15116)
T1 construct: expressed in transfected cells; host or cells: Jurkat
Assay: Jurkat-PD-1 Cell Binding High-Content Screening Assay (CBA): Method 1
Settings: Jurkat-hPD-1 cells, PE-labeled PD-L1-Ig 20 nM final; read-out: Jurkat HPDL1 PD1 IC50 (uM) (Method 1)

T1 sequence (Q15116 25-288): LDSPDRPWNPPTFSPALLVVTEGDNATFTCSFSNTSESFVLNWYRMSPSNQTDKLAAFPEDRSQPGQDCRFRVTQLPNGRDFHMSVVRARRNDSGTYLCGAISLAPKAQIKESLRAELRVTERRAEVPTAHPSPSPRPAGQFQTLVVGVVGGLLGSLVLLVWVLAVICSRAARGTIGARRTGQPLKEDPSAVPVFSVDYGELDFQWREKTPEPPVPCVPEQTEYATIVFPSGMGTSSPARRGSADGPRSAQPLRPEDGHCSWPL

Compound | IC50 [µM]
Cc1cccc(C[C@@H]2NC(=O)[C@H](CC(=O)O)NC(=O)[C@H](Cc3ccc(OCC(=O)O)cc3)NC(=O)[C@H](CCN)NC(=O)CSC[C@@H](C(=O)N[C@H](C(N)=O)C(C)(C)C(=O)O)NC(=O)[C@H](CO)NC(=O)[C@H](C(C)(C)O)NC(=O)[C@H](CC3CCCCC3)NC(=O)[C@H](CCN)NC(=O)[C@@H](CC(C)C)NC(=O)[C@H](C)N(C)C(=O)[C@H](Cc3ccc(OCC(=O)O)cc3)NC(=O)[C@H](Cc3ccc(-c4ccccc4)cc3)NC(=O)[C@H](Cc3ccc(OCC(=O)O)cc3)NC2=O)c1 [Compound 1847] ({CH2CO}-[Dab]Y(Carboxymethyl)D[Phe(3-Me)]Y(Carboxymethyl)[Bip]Y(Carboxymethyl)[NMeA][dL][Dab][Cha][Val(3-OH)]SC[Asp(3,3-Me2)]-NH2; thioether N-14) | 0.7
CCC(C)[C@@H]1NC(=O)[C@H](Cc2ccc(-c3ccccc3)cc2)NC(=O)[C@H](C(C)C)NC(=O)[C@H](Cc2cccc(C)c2)NC(=O)[C@H](CC(=O)O)NC(=O)[C@H](Cc2cccc(C)c2)NC(=O)[C@H](Cc2ccncc2)NC(=O)CSC[C@@H](C(=O)N[C@@H](CO)C(=O)O)NC(=O)[C@H](CO)NC(=O)[C@H](C(C)C)NC(=O)[C@H](CC2CCCCC2)NC(=O)[C@H](CCN)NC(=O)[C@@H](CC(C)C)NC(=O)[C@H](C)N(C)C1=O (stereo partly drawn) [Compound 2235] ({CH2CO}-[4Pal][Phe(3-Me)]D[Phe(3-Me)]V[Bip][Ile(3ξ)][NMeA][dL][Dab][Cha]VSCS-OH; thioether N-14) | 0.3
CC(C)C[C@@H]1NC(=O)[C@H](CCCNC(=N)N)NC(=O)C(C)(C)NC(=O)[C@H](C)N(C)C(=O)[C@H](CCCNC(=N)N)NC(=O)[C@H](Cc2ccc(-c3ccccc3)cc2)NC(=O)[C@H](C(C)C)NC(=O)[C@H](Cc2c[nH]c3ccccc23)NC(=O)[C@H](CC(=O)O)NC(=O)[C@H](Cc2ccc(O)cc2)NC(=O)[C@H](Cc2ccccc2)NC(=O)CSC[C@@H](C(=O)NCC(N)=O)NC(=O)[C@H](CO)NC(=O)[C@H](C(C)C)NC1=O [Compound 1013] ({CH2CO}-FYDWV[Bip]R[NMeA][Aib]RLVSCG-NH2; thioether N-14) | 0.16
CC(C)C[C@@H]1NC(=O)[C@H](Cc2c[nH]c3ccccc23)NC(=O)[C@H](CC(=O)O)NC(=O)[C@H](Cc2ccncc2)NC(=O)[C@H](Cc2ccc(OCC(=O)O)cc2)NC(=O)CSC[C@@H](C(=O)N[C@H](CCN)C(N)=O)NC(=O)[C@H]([C@@H](C)O)NC(=O)[C@H](C(C)C)NC(=O)[C@H](CC2CCCCC2)NC(=O)[C@H](CCN)NC(=O)[C@@H](CC(C)C)NC(=O)[C@H](C)N(C)C(=O)[C@H](C(C)C)NC(=O)[C@H](Cc2ccc(-c3ccccc3)cc2)NC1=O [Compound 1904] ({CH2CO}-Y(Carboxymethyl)[4Pal]DWL[Bip]V[NMeA][dL][Dab][Cha]VTC[dDab]-NH2; thioether N-14) | 0.01
CCC(C)[C@@H]1NC(=O)[C@H](Cc2ccc(-c3ccccc3)cc2)NC(=O)[C@H](C(C)C)NC(=O)[C@H](Cc2c[nH]c3ccccc23)NC(=O)[C@H](CC(=O)O)NC(=O)[C@H](Cc2ccc(O)cc2)NC(=O)[C@H](CC2CCCNC2)NC(=O)CSC[C@@H](C(=O)N[C@@H](C)C(N)=O)NC(=O)[C@H](C(C)O)NC(=O)[C@H](C(C)C)NC(=O)[C@H](CC2CCCCC2)NC(=O)[C@H](CCN)NC(=O)[C@@H](CC(C)C)NC(=O)[C@H](C)N(C)C1=O (stereo partly drawn) [Compound 2051] ({CH2CO}-[X41]YDWV[Bip][Ile(3ξ)][NMeA][dL][Dab][Cha]V[Thr(3ξ)]CA-NH2; thioether N-14) | 0.01
CC(C)C[C@@H]1NC(=O)[C@H](Cc2c[nH]c3ccccc23)NC(=O)[C@H](CC(=O)O)NC(=O)[C@H](Cc2ccc(OCC(=O)O)cc2)NC(=O)[C@H](Cc2ccncc2)NC(=O)CSC[C@@H](C(=O)NCC(N)=O)NC(=O)[C@H](CO)NC(=O)[C@H](C(C)C)NC(=O)[C@H](CC(C)C)NC(=O)[C@H](CC(N)=O)NC(=O)[C@@H](CC(C)C)NC(=O)[C@H](C)N(C)C(=O)[C@H](C(C)C)NC(=O)[C@H](Cc2ccc(-c3ccccc3)cc2)NC1=O [Compound 1551] ({CH2CO}-[4Pal]Y(Carboxymethyl)DWL[Bip]V[NMeA][dL]NLVSCG-NH2; thioether N-14) | 0.01
Cc1cccc(C[C@@H]2NC(=O)[C@H](CC(=O)O)NC(=O)[C@H](Cc3ccc(OCC(=O)O)cc3)NC(=O)[C@H](Cc3ccncc3)NC(=O)CSC[C@@H](C(N)=O)NC(=O)[C@H]([C@@H](C)O)NC(=O)[C@H](C(C)C)NC(=O)[C@H](CC3CCCCC3)NC(=O)[C@H](CCN)NC(=O)[C@@H](CC(C)C)NC(=O)[C@H](C)N(C)C(=O)[C@H](Cc3ccc(OCC(=O)O)cc3)NC(=O)[C@H](Cc3ccc(-c4ccccc4)cc3)NC(=O)[C@H](Cc3ccc(OCC(=O)O)cc3)NC2=O)c1 [Compound 1660] ({CH2CO}-[4Pal]Y(Carboxymethyl)D[Phe(3-Me)]Y(Carboxymethyl)[Bip]Y(Carboxymethyl)[NMeA][dL][Dab][Cha]VTC-NH2; thioether N-14) | 0.02
CC(C)C[C@@H]1NC(=O)[C@H](CCN)NC(=O)[C@@H](CC(C)C)NC(=O)[C@H](C)N(C)C(=O)[C@H](CCCNC(N)=O)NC(=O)[C@H](Cc2ccc(-c3ccccc3)cc2)NC(=O)[C@H](C(C)C)NC(=O)[C@H](Cc2c[nH]c3ccccc23)NC(=O)[C@H](CC(=O)O)NC(=O)[C@H](Cc2ccc(O)cc2)NC(=O)[C@H](CCCN)NC(=O)CSC[C@@H](C(=O)N[C@@H](C)C(N)=O)NC(=O)[C@H]([C@@H](C)O)NC(=O)[C@H](C(C)C)NC1=O [Compound 1347] ({CH2CO}-[Orn]YDWV[Bip][Cit][NMeA][dL][Dab]LVTCA-NH2; thioether N-14) | 0.03
CC(C)C[C@@H]1NC(=O)[C@H](CCCNC(=N)N)NC(=O)[C@H](Cc2csc3ccccc23)NC(=O)[C@H](C)N(C)C(=O)[C@H](CCCNC(=N)N)NC(=O)[C@H](Cc2ccc(-c3ccccc3)cc2)NC(=O)[C@H](C(C)C)NC(=O)[C@H](Cc2c[nH]c3ccccc23)NC(=O)[C@H](CC(=O)O)NC(=O)[C@H](Cc2ccc(O)cc2)NC(=O)[C@H](Cc2cnc[nH]2)NC(=O)CSC[C@@H](C(=O)N[C@@H](C)C(N)=O)NC(=O)[C@H](CO)NC(=O)[C@H](C(C)C)NC1=O [Compound 1040] ({CH2CO}-HYDWV[Bip]R[NMeA][Bta]RLVSCA-NH2; thioether N-14) | 0.17
CC(C)C[C@@H]1NC(=O)[C@H](CCN)NC(=O)[C@@H](CC(C)C)NC(=O)[C@H](C)N(C)C(=O)[C@H](CCCNC(N)=O)NC(=O)[C@H](Cc2ccc(-c3ccccc3)cc2)NC(=O)[C@H](C(C)C)NC(=O)[C@H](Cc2c[nH]c3ccccc23)NC(=O)[C@H](CC(=O)O)NC(=O)[C@H](Cc2ccc(OCC(=O)O)cc2)NC(=O)[C@H](Cc2ccc(OCC(=O)O)cc2)NC(=O)CSC[C@@H](C(=O)N[C@@H](C)C(N)=O)NC(=O)[C@H]([C@@H](C)O)NC(=O)[C@H](C(C)C)NC1=O [Compound 1569] ({CH2CO}-Y(Carboxymethyl)Y(Carboxymethyl)DWV[Bip][Cit][NMeA][dL][Dab]LVTCA-NH2; thioether N-14) | 0.04
CCC(C)[C@@H]1NC(=O)[C@H](Cc2ccc(-c3ccccc3)cc2)NC(=O)[C@H](C(C)C)NC(=O)[C@H](Cc2cccc(C)c2)NC(=O)[C@H](CC(=O)O)NC(=O)[C@H](Cc2ccc(OCC(=O)O)cc2)NC(=O)[C@H](C(C)O)NC(=O)CSC[C@@H](C(N)=O)NC(=O)[C@H](C(C)O)NC(=O)[C@H](C(C)C)NC(=O)[C@H](CC2CCCCC2)NC(=O)[C@H](CCN)NC(=O)[C@@H](CC(C)C)NC(=O)[C@H](C)N(C)C1=O (stereo partly drawn) [Compound 2250] ({CH2CO}-[Thr(3ξ)]Y(Carboxymethyl)D[Phe(3-Me)]V[Bip][Ile(3ξ)][NMeA][dL][Dab][Cha]V[Thr(3ξ)]C-NH2; thioether N-14) | 0.02
CC(C)C[C@@H]1NC(=O)[C@H](Cc2c[nH]c3ccccc23)NC(=O)[C@H](CC(=O)O)NC(=O)[C@H](Cc2ccncc2)NC(=O)[C@H](Cc2ccc(OCC(=O)O)cc2)NC(=O)CSC[C@@H](C(=O)N[C@@H](CCN)C(N)=O)NC(=O)[C@H](CCCN)NC(=O)[C@H](C(C)C)NC(=O)[C@H](CC2CCCCC2)NC(=O)[C@H](CCN)NC(=O)[C@@H](CC(C)C)NC(=O)[C@H](C)N(C)C(=O)[C@H](C(C)C)NC(=O)[C@H](Cc2ccc(-c3ccccc3)cc2)NC1=O [Compound 1948] ({CH2CO}-Y(Carboxymethyl)[4Pal]DWL[Bip]V[NMeA][dL][Dab][Cha]V[Orn]C[Dab]-NH2; thioether N-14) | 0.02
CSCC[C@H]1NC(=O)[C@H](C)N(C)C(=O)[C@H](CCCNC(=N)N)NC(=O)[C@H](Cc2ccc(-c3ccccc3)cc2)NC(=O)[C@H](C(C)C)NC(=O)[C@H](Cc2c[nH]c3ccccc23)NC(=O)[C@H](CC(=O)O)NC(=O)[C@H](Cc2ccc(O)cc2)NC(=O)[C@H](Cc2ccccc2)NC(=O)CSC[C@@H](C(=O)N[C@@H](C)C(N)=O)NC(=O)[C@H]([C@@H](C)O)NC(=O)[C@H](C(C)C)NC(=O)[C@H](CC(C)C)NC(=O)[C@H](CCCNC(=N)N)NC1=O [Compound 1062] ({CH2CO}-FYDWV[Bip]R[NMeA][dM]RLVTCA-NH2; thioether N-14) | 0.15
CC(C)C[C@@H]1NC(=O)[C@H](Cc2c[nH]c3ccccc23)NC(=O)[C@H](CC(=O)O)NC(=O)[C@H](Cc2ccc(O)cc2)NC(=O)[C@H](Cc2ccccc2)NC(=O)CSC[C@@H](C(=O)NCC(N)=O)NC(=O)[C@H](CO)NC(=O)[C@H](C(C)C)NC(=O)[C@H](CC(C)C)NC(=O)[C@H](CC(N)=O)NC(=O)[C@H](CO)NC(=O)[C@H](C)N(C)C(=O)[C@H](C(C)C)NC(=O)[C@H](Cc2ccc(-c3ccccc3)cc2)NC1=O [Compound 1007] ({CH2CO}-FYDWL[Bip]V[NMeA]SNLVSCG-NH2; thioether N-14) | 0.26
CC(=O)NCSC[C@H](NC(=O)C1CSCC(=O)N[C@@H](Cc2ccc(OCC(=O)O)cc2)C(=O)N[C@@H](CSCNC(C)=O)C(=O)N[C@@H](CC(=O)O)C(=O)N[C@@H](Cc2cccc(C)c2)C(=O)N[C@@H](CC(C)C)C(=O)N[C@@H](Cc2ccc(-c3ccccc3)cc2)C(=O)N[C@@H](C(C)C)C(=O)N(C)[C@@H](C)C(=O)N[C@H](CC(C)C)C(=O)N[C@@H](CC(N)=O)C(=O)N[C@@H](CC(C)C)C(=O)N[C@@H](C(C)C)C(=O)N[C@@H](CO)C(=O)N1)C(N)=O (stereo partly drawn) [Compound 1889] ({CH2CO}-Y(Carboxymethyl)C(Acm)D[Phe(3-Me)]L[Bip]V[NMeA][dL]NLVS[ξC]C(Acm)-NH2; thioether N-14) | 0.03

Reference: US20240409585A1, “MACROCYCLIC IMMUNOMODULATORS” (priority 2021, published 2024)
